Experimental findings from patent US20090105278A1, “Selective inhibitors of human corticosteroid syntheses” (Universitat Des Saarlandes, priority 2004, published 2009) are described below.

Where a name gives a salt, the structure may show the parent alone. Read-outs that look alike come from different tables or passages of the source.

The target in assay [1] is T1, human CYP11B2 (Homo sapiens, UniProt P19099).
T1 sequence (P19099 25-503): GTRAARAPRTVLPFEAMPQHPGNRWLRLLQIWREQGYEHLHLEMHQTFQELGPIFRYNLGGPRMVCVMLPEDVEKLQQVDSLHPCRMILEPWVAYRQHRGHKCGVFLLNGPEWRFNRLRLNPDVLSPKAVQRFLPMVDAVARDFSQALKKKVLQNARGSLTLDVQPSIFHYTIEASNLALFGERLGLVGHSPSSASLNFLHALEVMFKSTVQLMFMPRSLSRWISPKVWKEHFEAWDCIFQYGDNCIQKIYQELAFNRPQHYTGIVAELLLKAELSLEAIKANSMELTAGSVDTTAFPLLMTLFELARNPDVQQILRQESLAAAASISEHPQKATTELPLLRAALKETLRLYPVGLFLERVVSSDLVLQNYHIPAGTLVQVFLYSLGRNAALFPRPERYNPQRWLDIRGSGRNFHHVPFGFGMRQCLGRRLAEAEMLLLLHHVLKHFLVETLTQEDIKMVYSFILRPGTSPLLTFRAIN
Nature of the assay: Screening test in transgenic fission yeast (S. pombe PE1) expressing human CYP11B2. Set-up: expressed in transfected cells. Type of assay: cell-based. As for the experimental part: 492.5 μl of this cell suspension was admixed with 5 μl of inhibitor solution (50 μM of the compound to be tested in ethanol or DMSO) and incubated at 32° C. for 15 min. Controls were admixed with 5 μl of ethanol. […] The test was quenched by extracting the sample with 500 μl of EtOAc. After centrifugation (10,000 g, 2 min), the EtOAc phase was removed and evaporated to dryness. […] The reaction of the substrate to form corticosterone was analyzed by HPTLC (see below).
The quantification of the spots for the substrate deoxycorticosterone and the products corticosterone (and, if detectable, 18-hydroxycorticosterone and aldosterone) was effected with the related evaluation program AIDA. […] The calculation of the conversion rate was effected according to equation 1.
The plate was developed twice with the mobile solvent chloroform:methanol:water (300:20:1). Unlabeled 11-deoxycorticosterone and corticosterone were applied as a reference for the CYP11B1 reaction. For the CYP11B2 reaction, 11-deoxycorticosterone, corticosterone, 18-hydroxycorticosterone and aldosterone were used as references. The detection of the unlabeled references was effected at 260 nm. Subsequently, imaging plates (BAS MS2340, for ^14C samples, Raytest, Straubenhardt, Germany) were exposed to the HPTLC plates for 48 h. The imaging plates were scanned with the phosphoimager system Fuji FLA 3000 (Raytest, Straubenhardt, Germany), and the steroids were quantified.

For assay [2], the target named is T2, human placental CYP19 (Homo sapiens, UniProt P11511).
T2 construct: The enzyme was obtained from the microsome fraction of fresh human placenta; from tissue; host or cells: human placenta, microsomal fraction
T2 sequence (P11511 1-503): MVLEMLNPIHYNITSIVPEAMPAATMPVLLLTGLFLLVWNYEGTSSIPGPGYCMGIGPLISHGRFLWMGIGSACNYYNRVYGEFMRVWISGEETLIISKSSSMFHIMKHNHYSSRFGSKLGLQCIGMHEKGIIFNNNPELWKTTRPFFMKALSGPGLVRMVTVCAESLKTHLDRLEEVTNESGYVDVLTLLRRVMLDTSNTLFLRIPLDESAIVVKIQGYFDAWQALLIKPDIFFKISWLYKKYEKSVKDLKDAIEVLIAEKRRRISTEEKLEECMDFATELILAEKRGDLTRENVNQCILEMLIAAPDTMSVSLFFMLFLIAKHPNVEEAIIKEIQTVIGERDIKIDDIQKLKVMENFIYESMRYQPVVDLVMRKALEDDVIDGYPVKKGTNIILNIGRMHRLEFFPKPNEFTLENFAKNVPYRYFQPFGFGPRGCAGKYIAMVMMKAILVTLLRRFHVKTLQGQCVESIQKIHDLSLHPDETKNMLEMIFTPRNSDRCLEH
Put plainly: IC50 of CYP19 (human placental microsomes). In kind it is biochemical. As for the experimental part: The isolated microsomes were suspended in a minimum volume of phosphate buffer (0.05 M; pH 7.4; […]). In addition, DTT (10 mM) and EDTA (1 mM) were added to protect the enzyme from degradation reactions.
[…] […] The compounds to be tested were dissolved in DMSO and diluted with buffer to the desired concentration. The final DMSO concentration of the control and inhibitor incubations was about 20%. Each vessel was preincubated in a water bath at 30° C. for 5 min. The reaction was started by adding the microsomal protein (0.1 mg). The total volume of each mixture was 200 μl. After 14 min, the reaction was quenched by adding 200 μl of ice cold 1 mM HgCl2 solution. Two hundred microliters of a 2% aqueous suspension of dextran-coated charcoal, DCC) was added for absorbing the steroids, and the vessels were shaken for 20 min. Thereafter, the charcoal was centrifuged off at 1500 g for 5 min. The radioactive water present in the supernatant (^3H2O) was assayed by scintillation measurement using an LKB-Wallac beta counter. The calculation of the IC50 values was effected by a semilogarithmic plot of the percent inhibition against the inhibitor concentration.

[3] abbreviates: S. pombe cells which express human CYP11B2, deoxycorticosterone substrate 100 nM, inhibitor 500 nM.
Setting [4] is: human placental CYP19, testosterone substrate 2.5 μM.
[5] abbreviates: S. pombe cells which express human CYP11B2, deoxycorticosterone substrate 100 nM, inhibitor 500 nM, read-out: % Inhibition human hCYP11B2.
Where [6] appears, read: read-out: % Inhibition human hCYP11B2.

By IC50 is commonly meant the concentration at which inhibition is half-maximal. A lower IC50 goes with greater potency in that assay. As usually defined, the inhibition is the relative decrease from the control value, in per cent.

Take “5-[(E)-(6-Chloro-3,4-dihydronaphth-1(2H)-ylidene)methyl]-1H-imidazolium chloride [Compound 46a]”: the “% Inhibition human hCYP11B2” value in assay [1] (setting [3]) is on record as 48%. This compound also returned an IC50 in assay [2] (setting [4]) of 0.12 µM. As to “5-[(Z)-3,4-Dihydronaphth-1(2H)-ylidenemethyl]-1H-imidazolium oxalate [Compound 41b]”, the “% Inhibition human hCYP11B2” value in assay [1] (setting [3]) worked out at 82%. In assay [2] (setting [4]), this compound returned an IC50 of 0.19 µM. Turning to “5-[(Z)-(5-Bromo-2,3-dihydro-1H-indene-1-ylidene)methyl]-1H-imidazolium oxalate [Compound 49b]”, in assay [1] (setting [3]), the “% Inhibition human hCYP11B2” value is recorded as 76%.

On to “5-[(Z)-(5-Chloro-2,3-dihydro-1H-indene-1-ylidene)methyl]-1H-imidazolium oxalate [Compound 48b]”, for which the “% Inhibition human hCYP11B2” value in assay [1] (setting [3]) worked out at 80%. Besides, in assay [2] (setting [4]), the IC50 was 0.039 µM. On to `C(=C1/CCc2ccccc21)/c1cccnc1` [Compound 1a, 3-[(E)-2,3-Dihydro-1H-indane-1-ylidenemethyl]pyridine Hydrochloride], for which the inhibition at 0.5 µM in assay [1] (setting [5]) was determined as 82%. In assay [2] (setting [4]), half-maximal inhibition (IC50) required 2.04 µM. In the case of `C(=C1\CCc2ccccc21)/c1cccnc1.Cl` [Compound 1b, 3-[(Z)-2,3-Dihydro-1H-indane-1-ylidenemethyl]pyridine Hydrochloride], in assay [1] (setting [3]), the “% Inhibition human hCYP11B2” value amounted to 83%. This compound also yielded an IC50 in assay [2] of 3.55 µM. Turning to `C(=C1\CCc2ccccc21)/c1ccncc1` [Compound 2b, 4-[(Z)-2,3-Dihydro-1H-indane-1-ylidenemethyl]pyridine oxalate], 12.7 µM corresponded to half-maximal inhibition in assay [2] (setting [4]) (IC50). On to `C(=C1/CCCc2ccccc21)/c1cccnc1.Cl` [Compound 3a, 3-[(E)-3,4-Dihydronaphthalene-1(2H)-ylidenemethyl]pyridine Hydrochloride], for which the inhibition at 0.5 µM in assay [1] (setting [5]) was found to be 70%. Moreover, in assay [2] (setting [4]), the concentration for half-maximal inhibition (IC50) was determined as 6.58 µM. With `C(=C1\CCCc2ccccc21)/c1cccnc1.Cl` [Compound 3b, 3-[(Z)-3,4-Dihydronaphthalene-1(2H)-ylidenemethyl]pyridine Hydrochloride], the inhibition at 0.5 µM in assay [1] (setting [5]) was found to be 68%. The IC50 in assay [2] (setting [4]) stood at 3.79 µM. As to `Fc1ccc2c(c1)CC/C2=C\c1cccnc1` [Compound 5a, 3-[(E)-(5-Fluoro-2,3-dihydro-1H-indane-1-ylidene)methyl]pyridine Hydrochloride], the inhibition at 0.5 µM in assay [1] (setting [5]) was found to be 88%. This compound also registered a half-inhibitory concentration (IC50) in assay [2] (setting [4]) of 2.54 µM. Turning to `Fc1ccc2c(c1)CC/C2=C/c1cccnc1` [Compound 5b, 3-[(Z)-(5-Fluoro-2,3-dihydro-1H-indane-1-ylidene)methyl]pyridine Hydrochloride], the inhibition at 0.5 µM in assay [1] (setting [6]) is 89%; in assay [1] (read-out: S. pombe PE1 CYP11B2 DOC % inhibition), 88.6%. The IC50 in assay [2] (setting [4]) was found to be 2.49 µM. As to `Fc1ccc2c(c1)CC/C2=C\c1ccncc1` [Compound 6a, 4-[(E)-(5-Fluoro-2,3-dihydro-1H-indane-1-ylidene)methyl]pyridine Hydrochloride], in assay [1] (setting [6]), the inhibition at 0.5 µM came to 37%. In assay [2] (setting [4]), this compound came in with an IC50 of 1.55 µM. Regarding `Fc1ccc2c(c1)CC/C2=C/c1ccncc1` [Compound 6b, 4-[(Z)-(5-Fluoro-2,3-dihydro-1H-indane-1-ylidene)methyl]pyridine Hydrochloride], the inhibition at 0.5 µM in assay [1] (setting [6]) is 77%. In assay [2] (setting [4]), this compound displayed an IC50 of 0.8 µM. For the compound `Clc1ccc2c(c1)CC/C2=C\c1cccnc1` [Compound 7a, 3-[(E)-(5-Chloro-2.3-dihydro-1H-indane-1-ylidene)methyl]pyridine Hydrochloride], the inhibition at 0.5 µM in assay [1] (setting [5]) was 75%. Besides, in assay [2] (setting [4]), the IC50 amounted to 4.26 µM. As to `Clc1ccc2c(c1)CC/C2=C/c1cccnc1` [Compound 7b, 3-[(Z)-(5-Chloro-2,3-dihydro-1H-indane-1-ylidene)methyl]pyridine Hydrochloride], the inhibition at 0.5 µM in assay [1] (setting [5]) was 68%. This compound yielded an IC50 in assay [2] (setting [4]) of 4.05 µM. For `Clc1ccc2c(c1)CC/C2=C\c1ccncc1` [Compound 8a, 4-[(E)-(5-Chloro-2,3-dihydro-1H-indane-1-ylidene)methyl]pyridine Hydrochloride], the inhibition at 0.5 µM in assay [1] (setting [6]) turned out to be 38%. For the same compound, the 50% inhibitory concentration (IC50) in assay [2] (setting [4]) is 5.43 µM.

With `Brc1ccc2c(c1)CC/C2=C\c1cccnc1` [Compound 9a, 3-[(E)-(5-Bromo-2,3-dihydro-1H-indane-1-ylidene)methyl]pyridine Hydrochloride], the inhibition at 0.5 µM in assay [1] (setting [5]) turned out to be 60%. This compound also yielded an IC50 in assay [2] (setting [4]) of 7.83 µM. Turning to `Brc1ccc2c(c1)CC/C2=C/c1cccnc1` [Compound 9b, 3-[(Z)-(5-Bromo-2,3-dihydro-1H-indane-1-ylidene)methyl]pyridine Hydrochloride], in assay [1] (setting [5]), the inhibition at 0.5 µM stood at 58%. This compound also showed an IC50 in assay [2] (setting [4]) of 7.37 µM.

Take `Brc1ccc2c(c1)CC/C2=C\c1ccncc1` [Compound 10a, 4-[(E)-(5-Bromo-2,3-dihydro-1H-indane-1-ylidene)methyl]pyridine Hydrochloride]: the inhibition at 0.5 µM in assay [1] (setting [6]) came out at 17%. Take `COc1ccc2c(c1)CC/C2=C\c1cccnc1` [Compound 11a, 3-[(E)-(5-Methoxy-2,3-dihydro-1H-indane-1-ylidene)methyl]pyridine Hydrochloride]: in assay [1] (setting [5]), the inhibition at 0.5 µM is 79%. Half-maximal inhibition in assay [2] (setting [4]) (IC50) required 4.31 µM.

Take `COc1ccc2c(c1)CC/C2=C/c1cccnc1` [Compound 11b, 3-[(Z)-(5-Methoxy-2,3-dihydro-1H-indane-1-ylidene)methyl]pyridine Hydrochloride]: the inhibition at 0.5 µM in assay [1] (setting [5]) worked out at 81%. Also, the midpoint of inhibition in assay [2] (setting [4]), the IC50, lay at 5.57 µM.

As to `COc1ccc2c(c1)CCC/C2=C\c1cccnc1` [Compound 13a, 3-[(E)-(6-Methoxy-3,4-dihydronaphthalene-1(2H)-ylidene)methyl]pyridine Hydrochloride], the inhibition at 0.5 µM in assay [1] (setting [5]) stood at 52%. The compound also showed an IC50 in assay [2] (setting [4]) of 1.13 µM. On to `COc1ccc2c(c1)CCC/C2=C/c1cccnc1.Cl` [Compound 13b, 3-[(Z)-(6-Methoxy-3,4-dihydronaphthalene-1(2H)-ylidene)methyl]pyridine Hydrochloride], for which the inhibition at 0.5 µM in assay [1] (setting [5]) was determined as 53%. The compound further yielded an IC50 in assay [2] (setting [4]) of 4 µM. For `C(=C1/CCc2ccccc21)/c1cnc[nH]1` [Compound 42a, 5-[(E)-2,3-Dihydro-1H-indane-1-ylidenemethyl]-1H-imidazole], in assay [1] (setting [5]), the inhibition at 0.5 µM worked out at 77%. As for `C(=C1\CCc2ccccc21)/c1cnc[nH]1` [Compound 42b, 5-[(Z)-2,3-Dihydro-1H-ind-1-ylidenemethyl]-1H-imidazolium oxalate], the inhibition at 0.5 µM in assay [1] (setting [5]) is 81%. For `Brc1ccc2c(c1)CC/C2=C\c1cnc[nH]1.Cl` [Compound 49a, 5-[(E)-(5-Bromo-2,3-dihydro-1H-indene-1-ylidene)methyl]-1H-imidazolium chloride], the inhibition at 0.5 µM in assay [1] (setting [5]) was 68%.
